From ChEMBL document CHEMBL1201862, “PubChem BioAssay data set” (2004) come the findings set out here.

For orientation: EC50 means the concentration giving half of the maximal effect. In general, AC50 refers to the concentration giving half of the maximal activity seen.

The source made the active and inactive calls.

The target in test [1] is T1, Alkaline phosphatase, tissue-nonspecific isozyme (Homo sapiens, UniProt P05186).
T1 sequence (P05186 whole entry): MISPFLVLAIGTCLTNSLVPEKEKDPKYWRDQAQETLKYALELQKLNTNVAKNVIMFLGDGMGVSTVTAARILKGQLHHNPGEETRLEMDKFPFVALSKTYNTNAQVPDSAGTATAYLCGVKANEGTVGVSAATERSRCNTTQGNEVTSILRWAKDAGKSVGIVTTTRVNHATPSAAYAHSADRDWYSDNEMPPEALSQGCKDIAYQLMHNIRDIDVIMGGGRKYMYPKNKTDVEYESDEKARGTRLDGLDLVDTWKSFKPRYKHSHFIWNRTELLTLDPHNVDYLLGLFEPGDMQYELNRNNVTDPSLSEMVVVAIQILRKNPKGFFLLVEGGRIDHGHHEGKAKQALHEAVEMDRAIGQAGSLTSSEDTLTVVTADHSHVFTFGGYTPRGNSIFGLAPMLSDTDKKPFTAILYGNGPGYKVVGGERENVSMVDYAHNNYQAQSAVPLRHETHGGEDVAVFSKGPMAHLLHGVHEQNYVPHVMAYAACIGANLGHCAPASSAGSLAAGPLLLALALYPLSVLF
The test is described as follows: TNAP enzyme inhibition by screening hits, dose response, selectivity assay for mouse IAP inhibitor project, biochemical, human TNAP, uHTS hits (AID 488906). The class given is functional.

For test [2], the target named is Eukaryotic translation initiation factor 4H (Homo sapiens, UniProt Q15056). The test is described as follows: eIF4H binding inhibition – biochemical, uHTS, fluorescence polarization, translation initiation inhibitor project, primary screen (AID 2012). (In fluorescence polarisation assays a small probe gives low polarisation when free and higher when bound to something large.)

The target in test [3] is Polyadenylate-binding protein 1 (Homo sapiens, UniProt P11940). The test is described as follows: blockers of PABP interaction with poly(A) – biochemical, fluorescence polarization, […] (AID 2014).
For test [4], the target named is Intestinal-type alkaline phosphatase (Mus musculus, UniProt P24822). The experiment in a line: PubChem AID 488785. The class given is functional.
Test [5] addresses Intestinal-type alkaline phosphatase (Homo sapiens, UniProt P09923). The experiment in a line: inhibition of human intestinal alkaline phosphatase – biochemical, dose response (AID 488876). The class given is functional.
The target of test [6] is T2, Kappa-type opioid receptor (Homo sapiens, UniProt P41145). The class given is functional.
Another test deals with T3, Streptokinase A (Streptococcus pyogenes serotype M1, UniProt P10520).
T3 sequence (P10520 whole entry): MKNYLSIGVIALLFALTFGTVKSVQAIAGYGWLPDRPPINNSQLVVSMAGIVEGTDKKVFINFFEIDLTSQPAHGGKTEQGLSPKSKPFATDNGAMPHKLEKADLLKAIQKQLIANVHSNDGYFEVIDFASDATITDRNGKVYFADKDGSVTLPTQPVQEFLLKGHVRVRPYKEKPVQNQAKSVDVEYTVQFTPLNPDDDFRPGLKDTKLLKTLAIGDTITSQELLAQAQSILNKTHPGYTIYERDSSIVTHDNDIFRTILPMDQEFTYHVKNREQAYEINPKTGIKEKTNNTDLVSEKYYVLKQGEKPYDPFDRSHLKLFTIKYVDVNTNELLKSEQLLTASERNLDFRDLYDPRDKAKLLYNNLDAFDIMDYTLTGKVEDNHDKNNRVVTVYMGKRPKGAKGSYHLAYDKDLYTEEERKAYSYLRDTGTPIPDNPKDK
The test is described as follows: viability-normalized secreted streptokinase activity reduction – plasminogen activation absorbance, OD405, dose response (AID 1914).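 Also: secreted streptokinase activity via plasminogen activation per viability signal from cell pellet.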 Format: functional, Streptococcus pyogenes M1 GAS.

In the next test the target is Beta-galactosidase (Escherichia coli, UniProt Q8VNN2). The class given is functional.
Test [7] addresses T4, Delta-type opioid receptor (Homo sapiens, UniProt P41143). The experiment in a line: HTS Image-Based Screen for Agonists of the DOR Receptor. [Related pubchem assays (depositor defined):AID1777, AID1786, AID2133]. The class given is functional.
The target in a further test is Mu-type opioid receptor (Homo sapiens, UniProt P35372). The experiment in a line: HTS Image-Based Screen for Agonists of the MOR Receptor. [Related pubchem assays (depositor defined):AID1777, AID1785, AID1786, AID2133]. The class given is functional.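 Also: imaging of beta-arrestin GFP recruitment into spots after receptor activation.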
Test [8] concerns the target T2, Kappa-type opioid receptor. Format: functional. The source holds these as a separate data set.
For a further test, the target named is Paired box protein Pax-8 (Homo sapiens, UniProt Q06710). The test is described as follows: PAX8 transcriptional activity inhibition in RMG-I – RMG-I cells, luciferase, cherry-pick, dose response (AID 687027).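 Also: luciferase reporter driven by Pax8 target thyroperoxidase promoter measured by SteadyGlo luminescence.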 Format: functional, cell-based.
For test [9], the target named is T4, Delta-type opioid receptor. The test is described as follows: HTS Image-Based Screen for Antagonists of the DOR Receptor. [Related pubchem assays (depositor defined):AID1777, AID1785, AID1786, AID2133]. Format: functional.
Test [10] concerns the target T5, Low molecular weight phosphotyrosine protein phosphatase (Homo sapiens, UniProt P24666).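 Also: Dose-response confirmation assay measuring inhibition of LMPTP enzyme activity by fluorescence intensity read-out.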
T5 sequence (P24666 whole entry): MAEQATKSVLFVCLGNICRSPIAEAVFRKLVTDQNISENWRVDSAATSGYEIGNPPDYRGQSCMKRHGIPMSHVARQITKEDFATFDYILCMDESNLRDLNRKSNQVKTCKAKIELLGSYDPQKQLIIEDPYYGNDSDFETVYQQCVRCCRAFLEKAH
Format: functional. The note with it: read-out: IC50_Mean.

For test [11], the target named is T6, Tyrosine-protein phosphatase non-receptor type 7 (Homo sapiens, UniProt P35236).
T6 sequence (P35236 whole entry): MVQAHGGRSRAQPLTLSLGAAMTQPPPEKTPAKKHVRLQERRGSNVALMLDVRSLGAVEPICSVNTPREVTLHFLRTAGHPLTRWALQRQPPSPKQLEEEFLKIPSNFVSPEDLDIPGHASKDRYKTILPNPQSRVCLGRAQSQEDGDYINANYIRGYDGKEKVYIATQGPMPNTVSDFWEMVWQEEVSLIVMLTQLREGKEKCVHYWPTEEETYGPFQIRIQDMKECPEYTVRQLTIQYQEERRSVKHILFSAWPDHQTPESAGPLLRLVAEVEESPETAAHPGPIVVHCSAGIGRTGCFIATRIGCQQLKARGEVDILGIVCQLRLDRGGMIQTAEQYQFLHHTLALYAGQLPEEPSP
The experiment in a line: redox-active compounds inhibiting HePTP phosphatase – biochemical, fluorescence, mechanism study (AID 2068). Format: functional.

Test [12] has as its target T7, Dual specificity protein phosphatase 3 (Homo sapiens, UniProt P51452). The experiment in a line: SAR VHR1 absorbance Assay for In Vitro dose response studies. [Related pubchem assays (depositor defined):AID1654, AID1661, AID1878, AID1992, AID2004].
Test [13] deals with T7, Dual specificity protein phosphatase 3. The test is described as follows: SAR VHR1 Fluorescent Assay for In Vitro dose response studies. [Related pubchem assays (depositor defined):AID1654, AID1661, AID1878, AID1992, AID2004, AID2070, AID2085]. Format: functional.
For test [14] the target is unchanged. The test is described as follows: MOA VHR1 Fluorescent secondary assay for identification of redox-state modulating compounds. [Related pubchem assays (depositor defined):AID1654, AID1661, AID1878, AID1957].
Test [15] addresses Tyrosine-protein phosphatase non-receptor type 12 (Homo sapiens, UniProt Q05209). The test is described as follows: SAR Selectivity Analysis of small molecule inhibitors of PEST using pCAP in a fluorescence assay. [Related pubchem assays (depositor defined):AID1779, AID1784, AID2135]. The class given is functional.
The target of test [16] is T8, Dual specificity protein phosphatase 6 (Rattus norvegicus, UniProt Q64346).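 Also: confirmatory in vitro dose-response testing of MKP-3 inhibition; recombinant His-tagged MKP-3 made in E. coli BL21 with OMFP substrate.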
T8 sequence (Q64346 whole entry): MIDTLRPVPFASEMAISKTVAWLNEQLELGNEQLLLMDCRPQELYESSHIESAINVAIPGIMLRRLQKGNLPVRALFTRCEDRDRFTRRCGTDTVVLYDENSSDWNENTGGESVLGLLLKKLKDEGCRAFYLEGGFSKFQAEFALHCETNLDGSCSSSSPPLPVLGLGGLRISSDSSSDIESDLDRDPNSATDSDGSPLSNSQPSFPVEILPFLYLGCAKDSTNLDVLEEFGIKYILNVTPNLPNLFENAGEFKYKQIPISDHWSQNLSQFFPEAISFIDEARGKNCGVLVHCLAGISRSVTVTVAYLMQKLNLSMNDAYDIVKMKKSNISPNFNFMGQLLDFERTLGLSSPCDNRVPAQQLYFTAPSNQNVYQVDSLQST
The class given is functional.

The target of test [17] is T9, Small ubiquitin-related modifier 1 (Homo sapiens, UniProt P63165). The experiment in a line: SUMO1 protein-protein binding blockers, potency – biochemical, FRET, dose response (AID 624383). Format: functional. The note with it: read-out: IC50_Mean.
Test [18] deals with T10, Tyrosine-protein phosphatase non-receptor type 22 (Homo sapiens, UniProt Q9Y2R2).
T10 sequence (Q9Y2R2 whole entry): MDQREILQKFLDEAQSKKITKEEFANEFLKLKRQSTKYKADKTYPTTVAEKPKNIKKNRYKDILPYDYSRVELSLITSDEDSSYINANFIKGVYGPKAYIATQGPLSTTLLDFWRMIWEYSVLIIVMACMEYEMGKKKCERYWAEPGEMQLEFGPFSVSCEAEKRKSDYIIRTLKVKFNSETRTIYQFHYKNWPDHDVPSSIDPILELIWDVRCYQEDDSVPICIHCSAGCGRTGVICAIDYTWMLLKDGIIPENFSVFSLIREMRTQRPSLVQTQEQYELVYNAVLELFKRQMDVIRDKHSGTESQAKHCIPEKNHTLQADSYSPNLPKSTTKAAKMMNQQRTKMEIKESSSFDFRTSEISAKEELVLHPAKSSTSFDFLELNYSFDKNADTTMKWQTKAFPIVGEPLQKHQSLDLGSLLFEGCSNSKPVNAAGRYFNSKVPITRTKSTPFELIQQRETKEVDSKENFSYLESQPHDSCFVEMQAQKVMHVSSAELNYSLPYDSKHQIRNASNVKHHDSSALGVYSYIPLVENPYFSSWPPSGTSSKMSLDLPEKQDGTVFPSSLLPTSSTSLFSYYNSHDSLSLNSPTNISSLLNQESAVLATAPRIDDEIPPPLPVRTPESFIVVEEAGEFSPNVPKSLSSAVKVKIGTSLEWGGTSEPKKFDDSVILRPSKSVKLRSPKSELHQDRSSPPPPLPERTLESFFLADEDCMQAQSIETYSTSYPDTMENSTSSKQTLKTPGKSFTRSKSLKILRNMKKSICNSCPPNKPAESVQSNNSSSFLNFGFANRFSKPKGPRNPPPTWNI
The test is described as follows: SAR LYP1 Fluorescent Assay using OMFP substrate for In Vitro dose response studies - Set 3. [Related pubchem assays (depositor defined):AID1779, AID1784, AID2140, AID2686]. Format: functional.

Test [19] has as its target T10, Tyrosine-protein phosphatase non-receptor type 22. The experiment in a line: inhibition of lymphoid tyrosine phosphatase LYP – biochemical, pCAP fluorogenic substrate, fluorescence, set 3, SAR follow-up (AID 449727). The class given is functional.
The target in test [20] is T9, Small ubiquitin-related modifier 1. The experiment in a line: SUMO1 protein interaction blockers, potency – biochemical, fluorescence polarization, uHTS hits, dose response (AID 624382). The class given is functional. Conditions: read-out: IC50_Mean.
Test [21] addresses T6, Tyrosine-protein phosphatase non-receptor type 7. The experiment in a line: inhibition of hematopoietic tyrosine phosphatase HePTP – biochemical, set 2, SAR follow-up (AID 449736). The class given is functional.
Test [22] concerns the target DNA (cytosine-5)-methyltransferase 1 (Homo sapiens, UniProt P26358). The test is described as follows: inhibition of DNA methylation by DNMT1 – biochemical, fluorescent molecular beacon, confirmation (AID 602386). Format: functional.
The target in test [23] is T10, Tyrosine-protein phosphatase non-receptor type 22. The test is described as follows: PTPN22 enzyme inhibitors – biochemical, fluorescence, LYP catalytic domain, selectivity assay for LMPTP inhibitor project, dose response (AID 652006). Format: functional. The note with it: read-out: IC50_Mean.
Test [24] has as its target Protein-arginine deiminase type-4 (Homo sapiens, UniProt Q9UM07). The experiment in a line: IC50 against protein arginine deiminase 4 – biochemical, fluorescence readout, dose response (AID 492970).

T7 sequence (P51452 whole entry): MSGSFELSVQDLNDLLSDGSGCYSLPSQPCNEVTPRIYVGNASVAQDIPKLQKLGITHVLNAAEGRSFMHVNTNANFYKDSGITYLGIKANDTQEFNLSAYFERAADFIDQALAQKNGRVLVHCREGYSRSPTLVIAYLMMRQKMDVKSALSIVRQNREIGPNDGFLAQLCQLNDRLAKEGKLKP
T4 sequence (P41143 whole entry): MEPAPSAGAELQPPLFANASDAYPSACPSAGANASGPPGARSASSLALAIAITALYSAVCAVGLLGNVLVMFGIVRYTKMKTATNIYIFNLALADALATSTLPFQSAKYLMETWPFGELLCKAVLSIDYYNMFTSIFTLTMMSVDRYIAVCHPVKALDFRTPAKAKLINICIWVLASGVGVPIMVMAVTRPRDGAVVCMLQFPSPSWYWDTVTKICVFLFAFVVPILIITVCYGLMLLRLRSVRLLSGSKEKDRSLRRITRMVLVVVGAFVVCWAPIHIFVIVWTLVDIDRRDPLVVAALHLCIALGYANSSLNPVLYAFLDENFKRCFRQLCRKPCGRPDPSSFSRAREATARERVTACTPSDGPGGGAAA
T9 sequence (P63165 whole entry): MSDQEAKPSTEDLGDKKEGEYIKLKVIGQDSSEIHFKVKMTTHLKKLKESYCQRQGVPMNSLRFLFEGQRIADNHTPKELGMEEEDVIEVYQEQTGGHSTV
T2 sequence (P41145 whole entry): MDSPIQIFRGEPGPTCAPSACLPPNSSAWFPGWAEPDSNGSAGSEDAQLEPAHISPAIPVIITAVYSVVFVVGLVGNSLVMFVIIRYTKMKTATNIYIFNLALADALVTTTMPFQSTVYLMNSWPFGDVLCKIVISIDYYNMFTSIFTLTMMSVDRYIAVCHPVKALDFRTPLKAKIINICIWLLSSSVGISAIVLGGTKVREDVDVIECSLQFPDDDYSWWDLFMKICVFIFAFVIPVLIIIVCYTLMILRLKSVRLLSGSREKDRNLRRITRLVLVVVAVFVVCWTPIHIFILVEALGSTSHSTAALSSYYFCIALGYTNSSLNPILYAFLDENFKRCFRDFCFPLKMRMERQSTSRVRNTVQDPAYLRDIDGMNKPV
Paired box protein Pax-8, sequence (Q06710 whole entry): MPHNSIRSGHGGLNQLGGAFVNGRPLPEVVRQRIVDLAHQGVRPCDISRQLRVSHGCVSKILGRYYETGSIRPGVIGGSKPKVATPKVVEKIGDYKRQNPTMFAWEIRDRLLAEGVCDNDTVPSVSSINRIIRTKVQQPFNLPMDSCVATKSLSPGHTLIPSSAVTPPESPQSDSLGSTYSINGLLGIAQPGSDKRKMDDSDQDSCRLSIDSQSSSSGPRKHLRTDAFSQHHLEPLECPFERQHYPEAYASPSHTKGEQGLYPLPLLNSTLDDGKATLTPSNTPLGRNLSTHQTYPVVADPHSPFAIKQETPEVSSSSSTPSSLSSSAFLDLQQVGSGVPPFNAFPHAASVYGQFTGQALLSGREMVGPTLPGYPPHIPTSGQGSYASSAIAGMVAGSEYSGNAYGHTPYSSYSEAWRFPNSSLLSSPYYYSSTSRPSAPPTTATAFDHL
Tyrosine-protein phosphatase non-receptor type 12, sequence (Q05209 whole entry): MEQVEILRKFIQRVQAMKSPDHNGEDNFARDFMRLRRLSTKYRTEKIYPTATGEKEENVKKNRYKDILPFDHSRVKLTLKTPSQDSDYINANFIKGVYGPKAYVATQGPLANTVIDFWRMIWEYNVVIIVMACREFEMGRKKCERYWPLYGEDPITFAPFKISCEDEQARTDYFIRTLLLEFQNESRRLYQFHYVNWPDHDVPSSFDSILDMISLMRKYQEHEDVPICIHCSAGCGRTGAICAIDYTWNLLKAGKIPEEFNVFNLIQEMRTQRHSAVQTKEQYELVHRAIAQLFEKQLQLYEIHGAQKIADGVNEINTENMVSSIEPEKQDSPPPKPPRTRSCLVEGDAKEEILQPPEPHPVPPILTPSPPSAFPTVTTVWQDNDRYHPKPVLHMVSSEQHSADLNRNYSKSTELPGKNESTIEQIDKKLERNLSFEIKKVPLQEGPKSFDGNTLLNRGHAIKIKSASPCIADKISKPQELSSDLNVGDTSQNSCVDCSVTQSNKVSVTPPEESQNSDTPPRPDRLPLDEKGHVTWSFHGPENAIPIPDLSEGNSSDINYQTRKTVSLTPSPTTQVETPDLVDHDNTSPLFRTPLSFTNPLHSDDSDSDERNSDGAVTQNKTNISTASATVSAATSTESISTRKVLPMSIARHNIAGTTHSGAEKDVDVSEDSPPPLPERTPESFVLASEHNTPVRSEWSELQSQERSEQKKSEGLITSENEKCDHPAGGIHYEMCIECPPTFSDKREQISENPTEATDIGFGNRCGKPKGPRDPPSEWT
Intestinal-type alkaline phosphatase (Homo sapiens, UniProt P09923), sequence (P09923 whole entry): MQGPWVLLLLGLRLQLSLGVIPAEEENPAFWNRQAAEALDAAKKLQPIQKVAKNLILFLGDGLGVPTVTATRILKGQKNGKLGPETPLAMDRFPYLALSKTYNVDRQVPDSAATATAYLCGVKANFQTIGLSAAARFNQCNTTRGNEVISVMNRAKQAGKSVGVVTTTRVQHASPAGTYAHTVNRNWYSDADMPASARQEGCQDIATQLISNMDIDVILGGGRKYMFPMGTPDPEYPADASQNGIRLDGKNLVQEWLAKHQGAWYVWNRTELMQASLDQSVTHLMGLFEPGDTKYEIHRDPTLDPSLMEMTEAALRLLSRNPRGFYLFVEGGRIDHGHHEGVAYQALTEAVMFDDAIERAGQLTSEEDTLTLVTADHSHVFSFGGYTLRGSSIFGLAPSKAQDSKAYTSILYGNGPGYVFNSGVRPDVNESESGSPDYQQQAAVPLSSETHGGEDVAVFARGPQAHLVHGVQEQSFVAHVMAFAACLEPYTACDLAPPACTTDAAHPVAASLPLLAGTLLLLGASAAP
Mu-type opioid receptor, sequence (P35372 whole entry): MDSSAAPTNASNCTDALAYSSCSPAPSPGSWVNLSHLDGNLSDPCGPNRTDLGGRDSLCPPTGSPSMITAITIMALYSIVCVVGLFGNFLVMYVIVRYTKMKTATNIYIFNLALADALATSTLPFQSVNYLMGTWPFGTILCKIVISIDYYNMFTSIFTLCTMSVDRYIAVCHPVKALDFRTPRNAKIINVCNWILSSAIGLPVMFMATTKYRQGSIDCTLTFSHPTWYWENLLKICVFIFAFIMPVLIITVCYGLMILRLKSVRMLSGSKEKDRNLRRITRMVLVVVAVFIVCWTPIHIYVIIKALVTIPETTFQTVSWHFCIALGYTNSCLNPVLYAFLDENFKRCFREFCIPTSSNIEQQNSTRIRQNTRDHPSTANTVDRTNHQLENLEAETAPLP
Protein-arginine deiminase type-4, sequence (Q9UM07 whole entry): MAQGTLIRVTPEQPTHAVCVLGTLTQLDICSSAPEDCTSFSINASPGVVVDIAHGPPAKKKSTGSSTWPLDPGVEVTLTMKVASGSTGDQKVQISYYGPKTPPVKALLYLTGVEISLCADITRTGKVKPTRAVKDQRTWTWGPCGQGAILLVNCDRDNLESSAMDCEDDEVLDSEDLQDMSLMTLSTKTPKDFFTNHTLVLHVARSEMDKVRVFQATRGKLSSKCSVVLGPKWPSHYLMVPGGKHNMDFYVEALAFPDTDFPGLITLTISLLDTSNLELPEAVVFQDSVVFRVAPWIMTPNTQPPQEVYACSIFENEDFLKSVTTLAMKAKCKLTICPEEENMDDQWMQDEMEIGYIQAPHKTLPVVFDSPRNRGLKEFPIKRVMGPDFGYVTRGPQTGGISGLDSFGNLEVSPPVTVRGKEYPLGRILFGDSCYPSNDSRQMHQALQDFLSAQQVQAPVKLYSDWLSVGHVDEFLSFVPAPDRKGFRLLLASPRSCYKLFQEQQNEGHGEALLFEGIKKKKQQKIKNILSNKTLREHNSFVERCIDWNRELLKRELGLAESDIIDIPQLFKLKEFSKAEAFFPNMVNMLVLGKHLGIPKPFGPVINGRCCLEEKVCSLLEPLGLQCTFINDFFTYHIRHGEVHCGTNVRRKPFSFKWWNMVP
Beta-galactosidase, sequence (Q8VNN2 whole entry): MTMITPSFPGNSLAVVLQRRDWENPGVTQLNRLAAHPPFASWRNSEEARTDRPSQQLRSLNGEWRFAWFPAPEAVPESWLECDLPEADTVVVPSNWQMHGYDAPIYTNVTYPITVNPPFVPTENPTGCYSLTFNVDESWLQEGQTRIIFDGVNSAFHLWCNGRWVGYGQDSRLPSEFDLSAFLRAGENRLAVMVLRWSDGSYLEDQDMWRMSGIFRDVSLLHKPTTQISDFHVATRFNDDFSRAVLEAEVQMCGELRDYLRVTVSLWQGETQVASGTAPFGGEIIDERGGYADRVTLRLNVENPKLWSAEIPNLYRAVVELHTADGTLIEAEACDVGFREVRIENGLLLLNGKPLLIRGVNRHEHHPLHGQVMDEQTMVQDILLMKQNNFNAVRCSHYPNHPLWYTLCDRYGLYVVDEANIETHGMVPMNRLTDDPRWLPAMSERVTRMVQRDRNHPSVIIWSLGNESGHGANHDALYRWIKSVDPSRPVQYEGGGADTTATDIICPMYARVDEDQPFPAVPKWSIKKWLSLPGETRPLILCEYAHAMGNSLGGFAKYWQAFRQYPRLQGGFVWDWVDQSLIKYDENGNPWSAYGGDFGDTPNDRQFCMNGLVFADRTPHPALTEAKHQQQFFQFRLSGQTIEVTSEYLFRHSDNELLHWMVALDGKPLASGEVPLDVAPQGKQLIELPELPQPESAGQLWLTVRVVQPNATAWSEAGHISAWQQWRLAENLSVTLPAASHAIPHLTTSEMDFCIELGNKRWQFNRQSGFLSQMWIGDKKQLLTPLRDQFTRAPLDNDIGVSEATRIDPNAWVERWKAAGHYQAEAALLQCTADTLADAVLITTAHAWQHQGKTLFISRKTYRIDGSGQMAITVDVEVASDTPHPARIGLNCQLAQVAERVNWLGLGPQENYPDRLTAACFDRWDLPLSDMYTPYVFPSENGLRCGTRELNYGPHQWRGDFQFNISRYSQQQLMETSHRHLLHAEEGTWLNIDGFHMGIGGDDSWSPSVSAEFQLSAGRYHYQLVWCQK

`COc1cc(OC)c2c(c1O)OC(c1ccccc1)CC2=O` (stereo not drawn): the IC50 in test [1] is > 100 µM (inactive); in [2], 48.6 µM (active); in test [3] it was 91.1 µM (active); in [4], 21.8 µM (active); in [5], > 100 µM (inactive).

As for `O=c1nc(-c2ccccn2)[nH]c2sc(-c3ccccc3)cc12`, the IC50 is over 32 µM in test [6], 1.79 µM (active) in [8] and > 32 µM (inactive) in test [9]. Also, the concentration giving a half-maximal response (EC50) on Streptokinase A is > 150 µM (not active); on Beta-galactosidase, > 31.5 µM (inactive); in [7], > 32 µM (inactive); at Mu-type opioid receptor it was > 32 µM (inactive). On Paired box protein Pax-8, the half-maximal activity concentration (AC50) is 14 µM (active).

On to `CCOC(=O)C1=C(C)N=c2sc(=Cc3ccc(OCC(=O)O)cc3)c(=O)n2C1c1ccc(Cl)cc1` (stereo not drawn), for which the IC50 in test [10] is 12.5 µM (active); in test [11], 0.52 µM (active); in test [12], 4.23 µM (active); in [13], 3.2 µM (active); in test [14], 2.08 µM (active); in [15] it was 2.41 µM (active). Further, the IC50 in test [16] was 41.4 µM (active); in test [17] it was 8.82 µM (active); in test [18], 3.82 µM (active); in test [19], 2.74 µM (active); in test [20] it was > 66.6 µM (inactive); in [21], 0.419 µM (active). For the same molecule, the IC50 in test [22] is 8.42 µM (active); in test [23], 12 µM (active).

With `CC(=O)c1cc([N+](=O)[O-])c(Sc2ccc(Cl)cc2)s1`, in test [24], the IC50 was 92 µM (inactive).
